Test [1] addresses T1, Mannose-6-phosphate isomerase (Homo sapiens, UniProt P34949).
T1 sequence (P34949 whole entry): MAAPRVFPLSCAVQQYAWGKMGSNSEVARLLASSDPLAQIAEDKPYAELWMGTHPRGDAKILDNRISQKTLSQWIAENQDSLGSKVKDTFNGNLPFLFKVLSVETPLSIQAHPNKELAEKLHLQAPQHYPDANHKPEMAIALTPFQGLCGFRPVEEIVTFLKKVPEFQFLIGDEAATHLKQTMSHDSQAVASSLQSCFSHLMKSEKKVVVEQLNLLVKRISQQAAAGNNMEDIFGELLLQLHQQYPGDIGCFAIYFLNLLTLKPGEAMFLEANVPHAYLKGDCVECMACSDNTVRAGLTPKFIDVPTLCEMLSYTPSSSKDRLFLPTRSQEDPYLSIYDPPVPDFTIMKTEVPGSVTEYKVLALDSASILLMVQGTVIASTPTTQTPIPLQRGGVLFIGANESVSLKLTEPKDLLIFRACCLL
As to the kind of experiment: MPI inhibition at elevated mannose 6-phosphate – biochemical, fluorescence intensity, high mannose 6-phosphate, primary screen (AID 1220).

The target in test [2] is T2, Sentrin-specific protease 6 (Homo sapiens, UniProt Q9GZR1).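 Also: Luminescence-based dose-response confirmatory assay of SENP6 inhibition, following up an ultra-high-throughput screen.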
T2 sequence (Q9GZR1 whole entry): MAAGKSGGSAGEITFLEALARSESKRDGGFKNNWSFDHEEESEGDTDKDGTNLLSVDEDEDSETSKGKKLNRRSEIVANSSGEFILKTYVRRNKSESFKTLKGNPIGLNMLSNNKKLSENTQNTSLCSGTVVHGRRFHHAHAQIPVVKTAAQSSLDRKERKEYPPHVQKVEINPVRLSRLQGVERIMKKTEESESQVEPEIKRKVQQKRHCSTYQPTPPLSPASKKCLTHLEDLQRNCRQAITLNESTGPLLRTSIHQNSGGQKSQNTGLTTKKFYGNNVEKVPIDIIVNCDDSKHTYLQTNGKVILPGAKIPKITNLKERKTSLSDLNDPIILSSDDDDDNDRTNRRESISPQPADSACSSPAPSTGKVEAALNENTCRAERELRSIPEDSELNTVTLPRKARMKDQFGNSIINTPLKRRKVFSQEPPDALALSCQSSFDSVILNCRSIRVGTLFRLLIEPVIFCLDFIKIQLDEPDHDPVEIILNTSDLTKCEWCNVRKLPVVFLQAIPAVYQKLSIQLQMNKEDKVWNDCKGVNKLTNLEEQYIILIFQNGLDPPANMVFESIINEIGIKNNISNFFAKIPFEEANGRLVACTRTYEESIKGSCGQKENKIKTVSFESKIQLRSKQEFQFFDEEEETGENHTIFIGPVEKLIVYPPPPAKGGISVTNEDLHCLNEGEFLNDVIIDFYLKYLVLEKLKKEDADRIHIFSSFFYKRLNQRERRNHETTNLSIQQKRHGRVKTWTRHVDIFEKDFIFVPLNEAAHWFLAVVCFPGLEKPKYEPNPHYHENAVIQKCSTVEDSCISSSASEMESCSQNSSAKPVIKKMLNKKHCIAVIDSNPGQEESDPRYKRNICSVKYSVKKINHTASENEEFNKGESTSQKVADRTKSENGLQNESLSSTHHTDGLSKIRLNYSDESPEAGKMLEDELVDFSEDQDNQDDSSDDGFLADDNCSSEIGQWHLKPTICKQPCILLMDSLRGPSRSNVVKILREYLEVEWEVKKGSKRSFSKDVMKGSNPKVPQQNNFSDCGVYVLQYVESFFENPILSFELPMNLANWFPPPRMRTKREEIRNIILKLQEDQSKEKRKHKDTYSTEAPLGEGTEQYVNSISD
It is filed as functional.

In test [3] the target is T3, Histone-lysine N-methyltransferase NSD2 (Homo sapiens, UniProt O96028).
T3 sequence (O96028 whole entry): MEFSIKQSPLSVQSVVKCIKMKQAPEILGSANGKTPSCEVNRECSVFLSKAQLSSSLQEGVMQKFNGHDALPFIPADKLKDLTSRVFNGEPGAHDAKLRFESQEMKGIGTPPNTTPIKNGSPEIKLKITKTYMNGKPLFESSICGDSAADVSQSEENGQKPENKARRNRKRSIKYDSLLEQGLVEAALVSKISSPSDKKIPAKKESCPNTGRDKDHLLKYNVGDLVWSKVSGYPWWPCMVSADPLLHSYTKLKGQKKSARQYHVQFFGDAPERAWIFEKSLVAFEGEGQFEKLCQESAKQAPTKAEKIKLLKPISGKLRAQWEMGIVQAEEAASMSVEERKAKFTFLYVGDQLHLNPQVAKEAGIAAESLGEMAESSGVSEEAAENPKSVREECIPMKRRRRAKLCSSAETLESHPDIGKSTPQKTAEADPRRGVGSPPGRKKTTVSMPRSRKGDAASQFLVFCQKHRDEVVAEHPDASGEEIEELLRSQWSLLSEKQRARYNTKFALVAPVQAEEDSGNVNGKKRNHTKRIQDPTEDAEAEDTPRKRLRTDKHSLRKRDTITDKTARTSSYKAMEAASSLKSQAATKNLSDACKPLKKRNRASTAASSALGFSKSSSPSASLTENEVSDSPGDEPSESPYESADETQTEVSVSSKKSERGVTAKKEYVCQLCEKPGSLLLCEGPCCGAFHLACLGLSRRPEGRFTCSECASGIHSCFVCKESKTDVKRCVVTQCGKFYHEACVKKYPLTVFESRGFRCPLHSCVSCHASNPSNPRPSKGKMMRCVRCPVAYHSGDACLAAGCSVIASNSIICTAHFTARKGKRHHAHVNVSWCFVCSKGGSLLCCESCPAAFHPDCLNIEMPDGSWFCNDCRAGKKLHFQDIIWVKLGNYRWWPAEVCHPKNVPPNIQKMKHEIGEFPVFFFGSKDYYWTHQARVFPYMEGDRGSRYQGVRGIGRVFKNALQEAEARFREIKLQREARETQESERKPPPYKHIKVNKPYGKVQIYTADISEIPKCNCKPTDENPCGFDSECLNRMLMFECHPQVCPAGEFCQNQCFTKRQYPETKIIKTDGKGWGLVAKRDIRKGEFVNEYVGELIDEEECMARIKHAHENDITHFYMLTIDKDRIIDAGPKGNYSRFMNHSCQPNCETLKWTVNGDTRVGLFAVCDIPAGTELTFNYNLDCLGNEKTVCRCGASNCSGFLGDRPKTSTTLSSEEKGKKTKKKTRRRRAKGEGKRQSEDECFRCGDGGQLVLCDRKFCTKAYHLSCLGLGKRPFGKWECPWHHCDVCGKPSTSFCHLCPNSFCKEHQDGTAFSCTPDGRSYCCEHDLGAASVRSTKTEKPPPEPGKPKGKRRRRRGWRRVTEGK
It is filed as biochemical.

The source made the active and inactive calls. Rule as the data show it, for most assays here: actives have a measured IC50 and inactives only a lower limit. Bounds are passed on as bounds.

For `CCC(C)NC(=O)c1c(N)n(CCCOC)c2nc3ccccc3nc12` (stereo not drawn), the half-inhibitory concentration (IC50) was > 50 µM (not active) in test [1] and 0.802 µM (active) in test [2]. Also, in test [3], the half-maximal activity concentration (AC50) is 4.25 µM (active).
